Experimental data as given in the CheMixHub viscosity set.

Test: xn = mol fraction of the nth substance listed

O=[N+]([O-])c1ccccc1 + CCCCCCC
101.3 kPa
Settings | viscosity [mPa·s]
293.15 K, x1 = 0.149 | 0.482
293.15 K, x1 = 0.2214 | 0.532
293.15 K, x1 = 0.2746 | 0.58
293.15 K, x1 = 0.3291 | 0.631
293.15 K, x1 = 0.4214 | 0.759
293.15 K, x1 = 0.4477 | 0.805
293.15 K, x1 = 0.4729 | 0.845
293.15 K, x1 = 0.4886 | 0.862
293.15 K, x1 = 0.5628 | 0.937
293.15 K, x1 = 0.6392 | 1.016
293.15 K, x1 = 0.7954 | 1.313
293.15 K, x1 = 0.8751 | 1.517
293.16 K, x1 = 0.383 | 0.845
293.57 K, x1 = 0.383 | 0.831
294.17 K, x1 = 0.383 | 0.812
295.09 K, x1 = 0.383 | 0.794
295.15 K, x1 = 0.149 | 0.471
295.15 K, x1 = 0.2214 | 0.517
295.15 K, x1 = 0.2746 | 0.562
295.15 K, x1 = 0.3291 | 0.611
295.15 K, x1 = 0.4214 | 0.72
295.15 K, x1 = 0.4477 | 0.759
295.15 K, x1 = 0.4729 | 0.79
295.15 K, x1 = 0.4886 | 0.808
295.15 K, x1 = 0.5628 | 0.896
295.15 K, x1 = 0.6392 | 0.984
295.15 K, x1 = 0.7954 | 1.274
295.15 K, x1 = 0.8751 | 1.475
296.42 K, x1 = 0.383 | 0.768
298.66 K, x1 = 0.383 | 0.736
299.15 K, x1 = 0.149 | 0.451
299.15 K, x1 = 0.2214 | 0.498
299.15 K, x1 = 0.2746 | 0.539
299.15 K, x1 = 0.3291 | 0.579
299.15 K, x1 = 0.4214 | 0.67
299.15 K, x1 = 0.4477 | 0.702
299.15 K, x1 = 0.4729 | 0.73
299.15 K, x1 = 0.4886 | 0.746
299.15 K, x1 = 0.5628 | 0.836
299.15 K, x1 = 0.6392 | 0.926
299.15 K, x1 = 0.7954 | 1.201
299.15 K, x1 = 0.8751 | 1.385
305.15 K, x1 = 0.149 | 0.423
305.15 K, x1 = 0.2214 | 0.463
305.15 K, x1 = 0.2746 | 0.503
305.15 K, x1 = 0.3291 | 0.536
305.15 K, x1 = 0.4214 | 0.615
305.15 K, x1 = 0.4477 | 0.643
305.15 K, x1 = 0.4729 | 0.678
305.15 K, x1 = 0.4886 | 0.681
305.15 K, x1 = 0.5628 | 0.764
305.15 K, x1 = 0.6392 | 0.85
305.15 K, x1 = 0.7954 | 1.104
305.15 K, x1 = 0.8751 | 1.26
313.15 K, x1 = 0.149 | 0.391
313.15 K, x1 = 0.2214 | 0.425
313.15 K, x1 = 0.2746 | 0.459
313.15 K, x1 = 0.3291 | 0.491
313.15 K, x1 = 0.4214 | 0.558
313.15 K, x1 = 0.4477 | 0.58
313.15 K, x1 = 0.4729 | 0.602
313.15 K, x1 = 0.4886 | 0.613
313.15 K, x1 = 0.5628 | 0.689
313.15 K, x1 = 0.6392 | 0.77
313.15 K, x1 = 0.7954 | 0.984
313.15 K, x1 = 0.8751 | 1.124

CC(=O)OC1CCCCC1 + CCCCCCCCCCO
viscosity [mPa·s], 101 kPa
Settings | 300 K | 310 K | 320 K
x2 = 0.0746 | 2.01 | 1.65 | 1.38
x2 = 0.1275 | 2.11 | 1.72 | 1.43
x2 = 0.184 | 2.26 | 1.82 | 1.51
x2 = 0.2015 | 2.3 | 1.86 | 1.55
x2 = 0.2425 | 2.42 | 1.95 | 1.6
x2 = 0.2741 | 2.54 | 2.03 | 1.66
x2 = 0.4169 | 3.15 | 2.47 | 1.98
x2 = 0.4886 | 3.61 | 2.81 | 2.23
x2 = 0.6055 | 4.41 | 3.35 | 2.62
x2 = 0.6993 | 5.27 | 3.95 | 3.04
x2 = 0.8435 | 7.56 | 5.49 | 4.1
x2 = 0.8806 | 8.17 | 5.85 | 4.37

CCCCCCCCCCCCCC + CCCC(C)O
viscosity [mPa·s], 101.33 kPa
Settings | x1 = 0.0999 | x1 = 0.2002 | x1 = 0.3001 | x1 = 0.3987 | x1 = 0.5009 | x1 = 0.6004 | x1 = 0.6996 | x1 = 0.8014 | x1 = 0.9002
293.15 K | 2.923 | 2.557 | 2.314 | 2.191 | 2.117 | 2.1 | 2.114 | 2.141 | 2.177
303.15 K | 2.381 | 2.111 | 1.928 | 1.823 | 1.752 | 1.741 | 1.748 | 1.76 | 1.787
313.15 K | 1.742 | 1.58 | 1.476 | 1.41 | 1.391 | 1.392 | 1.41 | 1.441 | 1.472
323.15 K | 1.362 | 1.266 | 1.192 | 1.152 | 1.148 | 1.153 | 1.171 | 1.21 | 1.24

CCCCCO + CN(C)C=O
298.15 K, 101 kPa
Settings | viscosity [mPa·s]
x2 = 0.4261 | 1.395
x2 = 0.5467 | 1.568

ClC(Cl)=C(Cl)Cl + CC(C)O
Settings | viscosity [mPa·s]
298.15 K, 101.3 kPa, x1 = 0.0763 | 1.855
298.15 K, 101.3 kPa, x1 = 0.6349 | 1.025
303.15 K, 101.33 kPa, x1 = 0.1028 | 1.473
303.15 K, 101.33 kPa, x1 = 0.2072 | 1.251
303.15 K, 101.33 kPa, x1 = 0.307 | 1.102
303.15 K, 101.33 kPa, x1 = 0.3926 | 1.007
303.15 K, 101.33 kPa, x1 = 0.5027 | 0.92
303.15 K, 101.33 kPa, x1 = 0.6105 | 0.864
303.15 K, 101.33 kPa, x1 = 0.6982 | 0.838
303.15 K, 101.33 kPa, x1 = 0.7882 | 0.823
303.15 K, 101.33 kPa, x1 = 0.8976 | 0.814

CCI + CCOC(C)=O
Settings | viscosity [mPa·s]
298.15 K, 101 kPa, x2 = 0.7859 | 0.462
